Measurements: US7189701B1, “Tetrapeptide stimulating functional activity of neurons pharmacological agent based thereon and method of use thereof” (Sankt-Petersburgskaya Obschestvennaya Organizatsiya …, priority 1999, dated 2007)
Residues, ends and D or L forms follow the SMILES beside them.

Assays:
[1] = tested on: mice subject to ECS-induced amnestic impact; experiment: CRPA in mice subject to ECS-induced amnestic impact; type: in vivo; conditions: testing in 24 hours after the training
Description: (§1) Nootropic activity of L-Ala-L-Glu-L-Asp-L-Pro tetrapeptide was studied with the application of the conditioned reflex of passive avoidance (CRPA) in the intact animals and under the conditions of amnestic impacts (electroconvulsive treatment and ethanol intoxication).
(§2) The experiments were carried out on male mice weighing 20 to 24 g. For each animal the period of stay in dark and lighted chamber departments was registered during 2 min. before the training. […] The animals were trained by means of applying an electric pain stimulus in the preferred dark department, which lasted until the animal left this department. L-Ala-L-Glu-L-Asp-L-Pro tetrapeptide was introduced intraperitoneally 60 min. before the training. Testing was performed in 2 and 24 hours after the training. The period the animal stayed in the dark and lighted chamber departments and the number of animals not entering the dark department (“educated” animals) were recorded.
Electroconvulsive shock (ECS) was induced in the mice no later than in 10 sec. after the training via corneal electrodes by an electric impulse of 25 mA, which lasted for 0.5 sec. L-Ala-L-Glu-L-Asp-L-Pro tetrapeptide was introduced intraperitoneally 60 min. before the training. Testing was performed in 24 hours after the training.

[2] = tested on: rats; experiment: Toxic effects of neurotropic agents (apomorphine, haloperidol, nicotine, caffeine), spontaneous motional activity; type: in vivo
Description: Investigated was the action of L-Ala-L-Glu-L-Asp-L-Pro tetrapeptide on the toxic effects of neurotropic agents of various pharmacological groups.
In an hour after an intramuscular injection of saline (control) or L-Ala-L-Glu-L-Asp-L-Pro tetrapeptide (5 μg/kg) the rats were intraperitoneally administered toxic doses of different neuropharmacological agents (apomorphine, haloperidol, nicotine and caffeine). Thereby, the parameters of vertical (anxiety) and horizontal (locomotor activity) spontaneous motional activity were registered.

[3] = tested on: rats; experiment: Chronic toxicity, 6 months intramuscular; type: in vivo
Description: Chronic toxicity of L-Ala-L-Glu-L-Asp-L-Pro (SEQ ID NO:1) tetrapeptide obtained by the claimed method was investigated by means of a long-term administration thereof to rats weighing 150–250 g. The animals were subject to daily intramuscular administration of the drug in doses 1 μg/kg, 0.1 mg/kg, 1 mg/kg in 0.5 ml of saline for 6 months. Animals' behaviour, food and water consumption, the state of hair integument and mucous membranes were registered. The animals were weighed daily for the first 3 months of the experiment and then—once a month. Haematological and biochemical investigations were conducted in 3 months after the onset of the drug administration and on the experiment completion. Functions of the cardiovascular system, liver, pancreas, kidneys and adrenal glands were assessed. After the treatment completion some animals were subject to pathomorphologic examination with the purpose to estimate the state of different sections of the brain and bone marrow, heart, aorta, lungs, liver, kidneys, endocrine and immune organs.

[4] = tested on: cerebral cortex of rats; experiment: Intensity of lipid peroxide oxidation reactions and protein peroxidation in the cerebral cortex; type: in vivo; conditions: 1 μg intraperitoneally daily for 5 days
Description: The intensity of lipid peroxide oxidation (LPO) was assessed by the content of initial LPO products—diene conjugates and end products—Schiff bases. The degree of protein peroxidation was estimated by the content of carbonyl-derived amino acids in proteins after their interaction with 2,4-dinitrophenylhydrazine.
The study was conducted on 20 white unbred rats. 1 μg of the tetrapeptide was administered to the animals intraperitoneally daily for 5 days.
Moreover, the tetrapeptide application inhibited protein peroxidation as well as LPO (Table 1).

[5] = tested on: patients with remote complications of craniocerebral injury; experiment: Clinical trial in patients with remote complications of craniocerebral injury (proof test, EEG α-index, subjective indices); type: in vivo, human
Description: The trial was conducted on 35 patients with remote complications of craniocerebral injury. They were divided into 3 groups: a control one (10 patients—standard treatment), a group under study (15 patients—standard treatment+1 μg of L-Ala-L-Glu-L-Asp-L-Pro tetrapeptide intramuscularly, daily for 10 days) and a comparison group (10 patients—standard treatment+Cerebrolysin). Remoteness of the suffered craniocerebral injury in the patients constituted 1 to 10 years. Decompensation of the posttraumatic process occurred in all the patients and was manifested in liquorodynamic disorder, neurocirculatory dystonia, cerebrofocal and psychopathologic syndromes.
Effect of the treatment with L-Ala-L-Glu-L-Asp-L-Pro tetrapeptide on the patients' attention was assessed by the proof test before and after the treatment. Significant increase in the number of reviewed symbols and decreased number of mistakes was noted, which indicated enhanced attention and raised stability of attention promoted by the tetrapeptide action (Table 5).
To assess the influence of L-Ala-L-Glu-L-Asp-L-Pro tetrapeptide on the cerebral bioelectric activity, a visual EEG (electroencephalography) test was carried out with its distribution on types and calculation of α-index before and after the treatment. EEG test was selectively performed in the patients from different groups showing most notable signs of disorder.
Before the treatment patients pathologic (III, IV and V) types of EEG prevailed in all the groups. The III-rd EEG type was characterised by the presence of so-called “non-dominant” curve, alongside with a low amplitude rate (no higher than 30–35 μV), irregular or even absent α-activity. The IV-th EEG type was marked by an extremely emphasised rhythm regularity and blurred zonal differences. The V-th EEG type was represented with an irregular slow activity (amplitude exceeding 35 μV), sharp waves and paroxysmal discharges.

[6] = tested on: intact white mice; experiment: Conditioned reflex of passive avoidance (CRPA) in intact mice; type: in vivo; conditions: for Trained animals (%): i.p. 60 min. before the training
Description: as §1, §2

[7] = tested on: mice subject to ethanol-induced amnestic impact; experiment: CRPA in mice subject to ethanol-induced amnestic impact; type: in vivo
Description: as §1, §2
Ethanol was administered to the mice orally for 13 days in the form of a 10% solution. Training was held twice: on the 14th day of ethanol administration and in 24 hours after the first training. L-Ala-L-Glu-L-Asp-L-Pro tetrapeptide was administered intraperitoneally 30 min. before the training. Testing was performed in 2 and 24 hours after the first and second training sessions.

[8] = 5 μg/kg intramuscular 1 hour before toxic dose of caffeine i.p.
[9] = after treatment, added to conventional treatment
[10] = 1: in 2 hours after the training
[11] = 2: in 24 hours after the training
[12] = 3: in 2 hours after the repeated training
[13] = 4: in 24 hours after the repeated training

## C[C@H](N)C(=O)N[C@@H](CCC(=O)O)C(=O)N[C@@H](CC(=O)O)C(=O)N1CCC[C@H]1C(=O)O [L-Ala-L-Glu-L-Asp-L-Pro tetrapeptide, L-Alanyl-L-Glutamyl-L-Aspartyl-L-Proline] (H-AEDP-OH)
[1]
  Total period of stay in the dark chamber in 24 hours: 38.1 ± 4.4
[1]; i.p. 60 min. before the training
  Trained animals (%): 25%
[2]; 5 μg/kg intramuscular 1 hour before toxic dose of apomorphine i.p.
  effect on apomorphine toxic effects (anxiety, locomotor activity): diminished anxiety and locomotor activity
[2]; [8]
  effect on caffeine-induced anxiety: lowered caffeine-induced anxiety
  effect on locomotor activity after caffeine: did not affect locomotor activity
[2]; 5 μg/kg intramuscular 1 hour before toxic dose of haloperidol i.p.
  effect on haloperidol toxic effects (anxiety, locomotor activity): increased anxiety and locomotor activity
[2]; 5 μg/kg intramuscular 1 hour before toxic dose of nicotine i.p.
  effect on nicotine toxic effects (anxiety): decreased the influence of nicotine on the animals' anxiety
[3]; intramuscular daily for 6 months, 1 μg/kg, 0.1 mg/kg, 1 mg/kg
  side effects, chronic toxicity: absence of any side effects
[3]; prolonged intramuscular administration to rats
  pathologic alterations (general state, peripheral blood indices, intrinsic organs, cardiovascular and respiratory systems, liver and kidney functions): no pathologic alterations
[4]
  Degree of protein peroxidation: 4.81 ± 0.09 μmole/mg of protein
  Diene conjugates: 29.67 ± 1.93 nmole/g of the tissue
  Schiff bases: 245.2 ± 23.9 IU/g of the tissue
[5]; [9]
  Number of mistakes (proof test): 6.3 ± 1.1
  Reviewed symbols (proof test): 2519.6 ± 105.3
  α-index (EEG): 47.9 ± 3.1
[5]; before vs after treatment, 1 μg intramuscularly daily for 10 days
  cases with improvement of subjective indices (memory, mental agility, headaches, emotional evenness, will activity, recovery after a night repose): 71%
[6]; 2 hours after training
  Total period of stay in the dark chamber during 2 min.: 11.4 ± 5.2 s
  Trained animals (%): 86%
[6]; 24 hours after training
  Total period of stay in the dark chamber during 2 min.: 26.6 ± 5.9 s
  Trained animals (%): 68%
[7]; [10]
  Total period of stay in the dark chamber: 47.8 ± 5.7 s
  Trained animals (%): 13%
[7]; [11]
  Total period of stay in the dark chamber: 41.6 ± 5.8 s
  Trained animals (%): 31%
[7]; [12]
  Total period of stay in the dark chamber: 13.7 ± 5.7 s
  Trained animals (%): 77%
[7]; [13]
  Total period of stay in the dark chamber: 7.6 ± 5.7 s
  Trained animals (%): 86%
